Measured values from patent US20230104487A1, “11-(4-CHLOROPHENYL)-4-(2,3-DIHYDRO-1H-INDOLE-1-CARBONYL)-3,11-DIMETHYL-5,10,DIOXATRICYCLO[7.4.0.0,2,6,]TRIDECA-1,3,6,8-TETRAEN-13-ONE AND DERIVATIVES AS DESTABILIZER OF CRY1 FOR THE TREATMENT OF CIRCADIAN RHYTHM ASSOCIATED DISEASES AND DISORDERS” (KOC UNIVERSITESI, priority 2019, published 2023).

Tests used:
BMAL1 = BMAL1 mRNA and protein, synchronized U2-OS cells; format: cell-based, human; conditions: 10 μM
Experimental: Cells were lysed in RIPA buffer (50 mM Tris, 150 mM NaCl, 1% Triton-X, 0.1% SDS) with fresh Protease inhibitor cocktail (PIC). After centrifugation at 13000 rpm for 15 minutes at 4° C., supernatant was used to determine the protein amount using Pierce Protein Assay (Thermo Scientific) according to the manufacturer's instruction. Mice liver samples were homogenized and lysed with Dounce homogenizer and RIPA buffer. After homogenization samples were incubated 10 minutes on ice. After centrifugation 13000 rpm 15 minutes at 4° C. supernatant was used for the whole cell lysate. Subcellular fractionation of liver samples: Liver samples were homogenized with cytosolic lysis buffer (10 mM HEPES pH 7.9, 10 mM KCl, 0.1 mM EDTA, 0.05% NP40, proteasome inhibitor) by pipetting 40 times with a cut tip. Then samples were incubated 10 minutes on ice and centrifuged for 3 minutes at 3000 rpm at 4° C. Supernatant was saved in a new tube, and pellet was processed for the nuclear fraction. […] ECL buffer system (Advansta WesternBright) was used to visualize HRP chemi-luminescence via BioRad ChemiDoc Touch visualizer.
QIAGEN RNeasy Mini Kit was used to isolate the mRNA. […] Quantity of RNA was determined by Nanodrop 2000 (Thermo Scientific). […] For quantitative real time PCR (qRT-PCR) analysis cDNAs were further diluted 5-fold (1:5). mRNA expression levels were calculated by qRT-PCR with the SYBR Green. […]

CRY1 = biological target: T1, CRY1 (Homo sapiens, UniProt Q16526); assay: Protein immunoblot, synchronized U2-OS cells, CRY1; format: cell-based; conditions: 10 μM, 80-92 h
T1 construct: To evaluate the effect of FORMULA I on the endogenous protein and mRNA level of clock genes; endogenous in cells; host or cells: U2-OS
T1 sequence (Q16526 1-586): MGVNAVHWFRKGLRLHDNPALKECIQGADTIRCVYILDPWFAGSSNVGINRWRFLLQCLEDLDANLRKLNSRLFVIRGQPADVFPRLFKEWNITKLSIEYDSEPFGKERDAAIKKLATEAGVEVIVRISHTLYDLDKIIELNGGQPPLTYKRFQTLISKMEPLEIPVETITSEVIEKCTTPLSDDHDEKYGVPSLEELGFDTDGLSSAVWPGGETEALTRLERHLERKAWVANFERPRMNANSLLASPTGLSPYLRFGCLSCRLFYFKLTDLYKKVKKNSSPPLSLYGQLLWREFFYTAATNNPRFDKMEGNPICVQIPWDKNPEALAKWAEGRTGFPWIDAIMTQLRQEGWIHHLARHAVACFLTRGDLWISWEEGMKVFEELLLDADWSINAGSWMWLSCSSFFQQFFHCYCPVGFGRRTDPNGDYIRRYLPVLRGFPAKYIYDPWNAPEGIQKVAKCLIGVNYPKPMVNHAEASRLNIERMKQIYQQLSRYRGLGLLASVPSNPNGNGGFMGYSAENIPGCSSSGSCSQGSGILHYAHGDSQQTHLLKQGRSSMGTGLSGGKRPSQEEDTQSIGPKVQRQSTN
Experimental: FIGS. 3A-3G are an illustration of FORMULA I decreased CRY1 level in synchronized U2-OS cells. Confluent U2-OS cells were synchronized by 2 h treatment with dexamethasone ([…]) and medium replaced with fresh medium containing FORMULA I or solvent (DMSO final 0.5%). Cells were harvested at indicated time points. FIGS. 3A-3B show lysed cells were analyzed via protein immunoblot technique. […] CRY levels in DMSO control divided by that of in FORMULA I treated samples were reported (mean±SEM, n=4). FIGS. 3C-3G show cells were subjected to reverse-transcription-quantitative polymerase chain reaction (RT-qPCR). […] Expression level of genes was normalized according to the expression level of that gene at 72ndh. (Data represent the mean±SEM, n=3 with duplicates ***: p<0.001 **: p<0.005, *: p<0.05 versus DMSO control by two-way ANOVA).
Cells were lysed in RIPA buffer (50 mM Tris, 150 mM NaCl, 1% Triton-X, 0.1% SDS) with fresh Protease inhibitor cocktail (PIC). After centrifugation at 13000 rpm for 15 minutes at 4° C., supernatant was used to determine the protein amount using Pierce Protein Assay (Thermo Scientific) according to the manufacturer's instruction. Mice liver samples were homogenized and lysed with Dounce homogenizer and RIPA buffer. […] ECL buffer system (Advansta WesternBright) was used to visualize HRP chemi-luminescence via BioRad ChemiDoc Touch visualizer. […]

SMILES: Cc1c(C(=O)N2CCc3ccccc32)oc2ccc3c(c12)C(=O)CC(C)(c1ccc(Cl)cc1)O3 (centres unmarked) [FORMULA I, 11-(4-chlorophenyl)-4-(2,3-dihydro-1H-indole-1-carbonyl)-3,11-dimethyl-5,10,dioxatricyclo[7.4.0.0,2,6,]trideca-1,3,6,8-tetraen-13-one]
- mRNA and protein levels of BMAL1 (BMAL1): Decreased mRNA and protein levels of BMAL1
- CRY1 protein level (CRY1): decreased the protein level of CRY1
